Values quoted from earlier work in patent publication US7416898B2, “Chemiluminescent 1,2-dioxetanes” (priority 2002, dated 2008).

Settings: compared with 1,2-dioxetanes (14) and (15)

## O=C(O)CCCOC1(c2cccc(OP(=O)(O)O)c2)OOC12C1CC3CC(C1)CC2C3 (stereo not shown) [Dioxetane 16]
  solubility in an aqueous system: more soluble in an aqueous system than 1,2-dioxetane (14) and (15)
